Measured values published in patent US9956199B2, “Chromane-like cyclic prenylflavonoids for the medical intervention in neurological disorders” (priority 2011, dated 2018).
“Also recorded” adds a separate entry of the source.

What was measured:
[1] = tested on: promoter of the neuronal precursor specific gene doublecortin (DCX); test: DCX promoter firefly-luciferase assay in primary fetal mouse brain derived (MEF) cells; assay type: cell-based; conditions: for effect on DCX promoter induction: 10 μM, MEF cells, three days; for stimulatory effect on the DCX promoter activity (FF/R relative to control): DCX promoter-luciferase transfected MEF cells, stimulated three days
Protocol: Primary mouse embryonic day 16 forebrain (MEF) cultures were prepared as follows. Pregnant NMRI mice (Charles River Laboratories, Sulzfeld, Germany) were sacrificed and the uteri promptly removed and immersed in ice-cold Dulbecco's phosphate buffered saline solution—DPBS (PAA, Pasching, Austria). Eight embryonic day (E) 16 embryos were released from the uteri; forebrains were taken out, separated from surrounding tissues and mechanically dissociated using a razor blade. Subsequently the dissociated cells were collected by 5 min centrifugation at 120×g. The pellet was resuspended in 10 ml PPD-solution containing 0.01% papain (Worthington, England), 0.1% Dispasell (Roche, Basel, Switzerland), 0.01% DNasel (Worthington, England), 12.4 mM MgSO4 dissolved in HBSS w/o Ca/Mg (PAA, Pasching, Austria). The cell suspension was incubated at 37° C. and triturated every ten minutes for three times. The cell suspension was then centrifuged at 120×g for 5 minutes and washed three times in Neurobasal medium (Gibco BRL, Germany) supplemented with 2% (v/v) B27 (Gibco BRL, Karlsruhe), 2 mM L-glutamine, 100 μg/ml Penicillin/Streptomycin (PAN Biotech GmbH, Aidenbach, Germany). Finally, the cell preparation was resuspended in 12 ml Neurobasal medium supplemented with B27 (Gibco BRL, Karlsruhe), 2 mM L-glutamine, 100 μg/ml Penicillin/Streptomycin (PAN Biotech GmbH, Aidenbach, Germany), 20 ng/ml Epidermal Growth Factor—rhEGF, 20 ng/ml Fibroblast Growth Factor—rhFGF (R&D Systems, Wiesbaden-Nordenstadt, Germany) and 2 μg/ml Heparin (Sigma-Aldrich, Taufkirchen, Germany) (NB plus all), seeded in one T75 flask (TPP, Switzerland) and maintained in a humidified atmosphere at 37° C. and 5% CO2. […] On this day (day 2), half of the medium was refreshed and on day 4 cells were passaged. To passage the cells, the culture medium containing the floating neurospheres was collected in a 15 ml tube (Corning, Lowell, USA) and centrifuged at 120×g for 5 min. For dissociation, the pellet was resuspended in 500 μl Accutase (PAA, Pasching, Austria) and triturated using a 1 ml pipette. The cell suspension was incubated at 37° C. for 10 min, and then, 10 ml media were added. Cell number was determined by Trypan blue exclusion.
Luciferase assays were performed using a noncommercial dual luciferase enzyme assay system (Dyer et al., 2000, Anal Biochem). In this system, a co-transfection with pDCX-Luci and a control vector driving Renilla-luciferase under the CMV promoter was performed. The two different luciferases have different specific substrates and, therefore, the DCX regulatory region driven firefly luciferase activity can be distinguished from CMV driven Renilla-luciferase. For analysis, the firefly luciferase activity was normalized against the CMV driven Renilla-luciferase. For each transfection reaction, a volume containing two million cells was transferred into a 15 ml tube (Corning, Lowell, USA), centrifuged at 120×g for 5 min to pellet the cells and resuspended in 100 μl Amaxa Mouse Neural Stem Cell Nucleofector Kit (Lonza, Kln, Germany). Then, pDCX-Luci (Karl, 2005) and pRL3 (Promega, Mannheim, Germany) (5 μg each) were added and the entire reaction mix was transferred into an Amaxa transfection cuvette. Transfection was done using the A-033 program in the Amaxa Nucleofector II (Lonza, Kln, Germany). Transfected cells were then pipetted into 20 ml of DMEM knockout medium (Gibco BRL, Germany) containing 20% serum replacement supplement (PAN Biotech GmbH, Aidenbach, Germany), 2 mM L-glutamine (PAN Biotech GmbH, Aidenbach, Germany) and 100 μg/ml Penicillin/Streptomycin (PAN Biotech GmbH, Aidenbach, Germany) (DMEM-KO plus supplements) in a 50 ml tube (Corning, Lowell, USA). From this resulting cell suspension, 200 μl per well were plated in Poly-Ornithine/Laminin coated 96-well-luciferase plates (Wimmer & Macho, Wels, Austria) in a cell density of 20.000 cells per well, as described herein below.

PC12 cells = test: PC12 cobalt-chloride stress test, Caspase 3/7 activation; assay type: cell-based, rat; conditions: CoCl2 300 μM, 24 hours; compounds 10 μM, NGF 50 ng/ml; FIG. 7A
Protocol: For the neuroprotection assay PC12 cells were stressed with cobalt chloride 300 μM for 24 hours and the activity of Caspase 3/7 and LDH release were measured. NGF 50 ng/ml was used as a positive control for Caspase 3/7 activity and NGF 100 ng/ml was used as a positive control for LDH release.
For the PC12-CoCl2-Assay PC12 cells were used (ATCC: CRL-1721 ™). These cells were growing in RPMI supplemented with 10% Horse Serum (heat inactivated) (Sigma Aldrich, Taufkirchen, Germany), 5% Fetal Bovine Serum (Lonza, Wuppertal, Germany), 2.5% Penicillin/Streptomycin and Glutamine (PAA, Pasching, Austria) as adherent cultures when the plates are coated with Poly-L-ornithine ([…] in water) for at least one hour at 37° C. For passaging PC12-cells were resuspended with Accutase (PAA, Pasching, Austria) for 10 minutes at 37° C. once a week.
For all experiments cells were plated (quadruplicates) on Poly-L-ornithine-coated 96-well plates at a density of 10^4 cells per well. For Caspase 3/7-measurement cells were seeded in a white 96-well-plate to detect luminescence. As positive-control for neuroprotection Nerve Growth Factor (NGF) (50 ng/ml and 100 ng/ml) was used. To induce hypoxia CoCl2 (300 μM) was added to the cells after 20-24 hours. The control-treatment was compound 1a (ENDF1), compound 1b (ENDF3), compound 3a (ENDF2), ENDF4 or Osajin in the concentrations 1 μM and 10 μM in proliferation-media without CoCl2.
For Caspase 3/7-activation Caspase 3/7 substrate was added to the cells in an equal amount 22 hours after stimulation. Plates are incubated for 2 hours at room temperature in the dark, luminescence was measured 24 hours after stimulation and the blank-values are subtracted.

| Compound | effect on DCX promoter induction [1] | stimulatory effect on the DCX promoter activity (FF/R relative to control) [1] | protection from CoCl2 induced Caspase 3/7 activity (PC12 cells) |
| --- | --- | --- | --- |
| COc1cc2c(c(O)c1C(=O)/C=C/c1ccc(O)cc1)C=CC(C)(C)O2 [Compound 1a, (E)-1-(5-hydroxy-7-methoxy-2,2-dimethyl-2H-chromen-6-yl)-3-(4-hydroxyphenyl)prop-2-en-1-one] | significantly higher than those exerted by the reference compounds | significantly and strongly induce; also recorded: very strong and significant stimulatory effect | partially protected; also recorded: significant neuroprotective effect similar to NGF |
| COc1cc2c(c(O)c1C(=O)/C=C/c1ccc(O)cc1)CCC(C)(C)O2 [Compound 1b, (E)-1-(5-hydroxy-7-methoxy-2,2-dimethylchroman-6-yl)-3-(4-hydroxyphenyl)prop-2-en-1-one] | significantly higher than those exerted by the reference compounds | significantly and strongly induce; also recorded: very strong and significant stimulatory effect | partially protected; also recorded: significant neuroprotective effect similar to NGF |
